From ChEMBL document CHEMBL1629520, “Synthesis and optimization of antitubercular activities in a series of 4-(aryloxy)phenyl cyclopropyl methanols” (Eur J Med Chem, 2010)

Legend:
Assay type in all cases: functional
[1] = system: Mycobacterium tuberculosis; assay: Antitubercular activity against multi drug-resistant Mycobacterium tuberculosis clinical isolate after 30 days by agar microdilution method
[2] = system: Mycobacterium tuberculosis; assay: Antitubercular activity against extensively drug-resistant Mycobacterium tuberculosis clinical isolate after 30 days by agar microdilution method
[3] = system: Mycobacterium tuberculosis; assay: Antitubercular activity against RMF-resistant Mycobacterium tuberculosis clinical isolate1 after 30 days by agar microdilution method
[4] = system: Mycobacterium tuberculosis; assay: Antitubercular activity against RMF-resistant Mycobacterium tuberculosis clinical isolate2 after 30 days by agar microdilution method

Measured: MIC

OC(c1ccc(OCc2ccc(OCCN3CCCCC3)cc2)cc1)C1CC1 (centres undefined)
12.5 µg/mL: [1] | [2] | [3] | [4]
